# Measurements from patent US20160310454A1, “LIVER X RECEPTOR AGONISTS IN THE TREATMENT OF EMPHYSEMA” (priority 2013, published 2016).
# What was measured:
# [1] = molecular target: T1, farnesoid X receptor (FXR (NR4H4)) (Homo sapiens, UniProt Q96RI1); conditions: cited from earlier work
# T1 sequence (Q96RI1 1-486): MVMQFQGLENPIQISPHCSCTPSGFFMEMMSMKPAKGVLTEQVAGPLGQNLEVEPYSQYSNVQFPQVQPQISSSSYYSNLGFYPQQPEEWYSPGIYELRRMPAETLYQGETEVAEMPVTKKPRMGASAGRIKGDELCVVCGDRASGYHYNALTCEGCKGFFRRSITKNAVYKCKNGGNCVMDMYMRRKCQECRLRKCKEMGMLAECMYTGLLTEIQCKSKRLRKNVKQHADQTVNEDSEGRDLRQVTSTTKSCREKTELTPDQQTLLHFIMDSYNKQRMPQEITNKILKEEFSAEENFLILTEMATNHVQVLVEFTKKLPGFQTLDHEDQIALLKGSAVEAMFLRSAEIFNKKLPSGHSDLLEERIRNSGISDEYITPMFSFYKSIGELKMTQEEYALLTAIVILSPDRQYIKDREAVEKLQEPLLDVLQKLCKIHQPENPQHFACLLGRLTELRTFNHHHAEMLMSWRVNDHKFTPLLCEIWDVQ
# [2] = test system: macrophage specific ABCA1 KO (ABCA1 Cre-LysM) macrophages treated with 5% CSE; assay: ABCA1 KO (ABCA1 Cre-LysM) mouse macrophages treated with 5% CSE with or without LXR agonist; type: cell-based
# Experimental: FIG. 14. Effect of LXR dependent ABCA1 reexpression on cigarette smoke induced pro-inflammatory and MMP signaling pathways in macrophages. (A.) Western Blot analysis of JNK phosphorylation (oxidative stress activated MAP kinase), (B.) mRNA expression analysis of TLR4/Myd88 in mouse macrophages treated with 5% CSE with or without LXR agonist (T0901317-Cayman) in 3 μM concentration. (C-E.) mRNA expression analysis of inflammatory cytokines TNFα (C.), IL-1β (D.) and IL-10 (E.) mouse macrophages isolated from bone marrow of WT (ABCA1 fl/fl mice) and macrophage specific ABCA1 KO (ABCA1 Cre-LysM) treated with 5% CSE with or without LXR agonist (T0901317-Cayman) in 3 μM concentration. (F-H.) Analysis of MMP activation mouse macrophages isolated from bone marrow of WT (ABCA1 fl/fl mice) and macrophage specific ABCA1 KO (ABCA1 Cre-LysM) treated with 5% CSE with or without LXR agonist (T0901317-Cayman) in 3 μM concentration. MMP-9 and -13 mRNA expression (F.), MMP-9 mRNA expression with LXR agonist treatment, (H.) MMP-9 activity assayed by gelatin zymography. β-Actin was used as a housekeeping gene control for RT-PCR. Values are presented as statistically significant when *p<0.05, **p<0.01, ***p<0.001 when compared to controls and #p<0.05 compared to 5% CSE.
# In these experiments both mouse peritoneal and mouse bone marrow derived macrophages (BMdM) were utilized. Mouse peritoneal macrophages were isolated from peritoneal cavities of 3% thioglycolate injected mice on the 5th day from injection. To compare expression of genes in vitro and in vivo peritoneal macrophages were isolated from mice exposed to room air and cigarette smoke. For in vitro analysis cells were seeded on culture plates for 24 h and then treated with CSE. For in vivo analysis cells were collected from peritoneal cavity and mRNA was directly isolated. […] The obtained cells were then counted (usually 100-150 million cells per mouse) and centrifuged for 5 min at 2600 rpm. […] Approximately after 7-10 days of plating the cells become fully differentiated into macrophages and were ready for subsequent experiments. […]
compound,measurement,setting,value
"O=S(=O)(c1ccccc1)N(CC(F)(F)F)c1ccc(C(O)(C(F)(F)F)C(F)(F)F)cc1 [T0901317, N-(2,2,2-trifluoroethyl)-N-[4-[2,2,2-trifluoro-1-hydroxy-1-(trifluoromethyl)ethyl]phenyl]-benzenesulfonamide]",activation of FXR compared with chenodeoxycholic acid,[1],"more potently than a natural bile acid FXR ligand, chenodeoxycholic acid"
same,potency as activator of LXR versus FXR,[1],much more potent activator of LXR than FXR
same,"decrease in MMP-9 activity and expression, MMP-13 expression and TNFα expression",[2]; ABCA1 KO macrophages,not observed
same,reversal of induction of cytokines by 5% CSE,"[2]; ABCA1 macrophage knockout, LXR agonist 3 μM",not able to reverse
same,reduction of mRNA and activity of MMP-9: dependence on ABCA1,"[2]; WT versus ABCA1 KO macrophages, 5% CSE, LXR agonist 3 μM",only in the presence of the ABCA1 transporter
